Read-outs that look alike come from different tables or passages of the source.
Assays:
AZT-resistant HIV-1 = assay: Antiviral activity against AZT-resistant HIV-1 in P4/R5 cells; assay type: cell-based
Protocol: P4/R5 cells are plated in 96-well culture dishes at a cell density of 3×10^3 cells/well in 100 μl DMEM/10% fetal bovine serum. In one set of plates, bisphosphonate variants are added (25μM final concentration in FIG. 6) to individual wells. In another identical set of plates, bisphosphonate variants are added along with specific concentrations of AZT (0.1 μM final concentration in FIG. 6). Each well is inoculated with AZT-resistant HIV (multiplicity of infection=1), and the cells are incubated at 37° C. for 48 hours. The cells are then washed and the extent of HIV infection is determined fluorometrically. The percent inhibition of HIV replication is calculated as [1-(fluorescence signal of cells infected in the presence of bisphosphonate divided by the fluorescence signal of cells infected in the absence of any drug)] multiplied by 100.

wild type HIV-1 = assay: Antiviral activity against wild type HIV-1 in P4/R5 cells; assay type: cell-based; conditions: Human immunodeficiency virus 1, compound alone, read-out: EC50 against replication
[1] = target: TAM-mutant HIV-1 reverse transcriptase (UniProt P04585); assay type: biochemical; parameters: other: preferred BPH variants; conditions: read-out: Estimated IC50; preferred BPH variants; quantity inhibited not given
Protocol: (§1) An 18 nucleotide DNA oligonucleotide (“primer DNA”) of sequence 5′-[…]-3′ was 5′ end labeled using [y^32p]-ATP and T4 polynucleotide kinase. The labeled primer DNA was purified by polyacrylamide gel electrophoresis, and then annealed to a synthetic DNA oligonucleotide (“template DNA”) of the sequence 5′-[…] […]-3′, to form “template/primer DNA”. Template/primer DNA was then chain-terminated with AZTMP by incubating for 30 minutes at 37° C. with HIV-1 reverse transcriptase in 50 mM Tris-HCl, pH 7.8, containing 60 mM KCl, 10 mM MgCl2, and 100 μM AZTTP. The total incubation sample was then dried under reduced pressure and the [^32P]-labeled, 3′-AZTMP-terminated primer DNA (now 19 nucleotides in length) was purified by polyacrylamide gel electrophoresis. The purified [^32P]-labeled, 3′-AZTMP-terminated primer DNA was annealed to template DNA to form the nucleic acid excision substrate (termed “AZTMP-T/P”).
(§2) At various times thereafter, aliquots were removed and quenched by dilution into sequencing gel loading buffer (98% deionized formamide, 10 mM EDTA, and 1 mg/mL each of bromophenol blue and xylene cyanol). Samples were heated at 100° C. for 5 minutes then subjected to polyacylamide gel electrophoresis using 16% polyacrylamide/7 M urea gels. Electrophoretically resolved products were visualized and quantified by phosphorimaging analysis.
(§3) The [^32P]-labeled, 3′-AZTMP-terminated nucleic acid excision substrate (“AZTMP-T/P”) is made as described in Example 2. […] After 10 minutes (for reactions with ATP) or 5 minutes (for reactions with sodium pyrophosphate), the reactions are stopped by the addition of 2 volumes of sequencing gel loading buffer (98% deionized formamide, 10 mM EDTA, and 1 mg/ml each of bromophenol blue and xylene cyanol). An identical control reaction in which RT is omitted is also carried out simultaneously. Samples are heated at 100° C. for 5 minutes then subjected to polyacylamide gel electrophoresis using 16% polyacrylamide/7 M urea gels. Electrophoretically resolved products are visualized and quantified by phosphorimaging analysis. The percent excision is defined by the amount of the 19 nucleotide [^32P]-labeled, 3′-AZTMP-terminated primer DNA in the sample divided by the amount of the 19 nucleotide [^32P]-labeled, 3′-AZTMP-terminated primer DNA in the control, multiplied by 100.

[2] = target: TAM-mutant HIV-1 reverse transcriptase (UniProt P04585); assay type: biochemical; parameters: AZT-terminated DNA that had undergone excision; other: 20 micromolar 218A, 3 mM ATP, after 10 minutes; 65% without bisp; other: 5 micromolar bisphosphonate, 3 mM ATP, after 10 min; 65% without; conditions: for % Inhibition of AZT excision: BPH concentration not given
Protocol: as §1, §2, §3

SMILES | IC50 [1] [µM] | further results
Cc1cn([C@H]2C[C@H](N=[N+]=[N-])[C@@H](CO)O2)c(=O)[nH]c1=O [AZT, 3′-azido-3′-deoxythymidine] |  | EC50 (AZT-resistant HIV-1; Human immunodeficiency virus 1, P4/R5, read-out: EC50 of AZT in the presence of 218A): > 0.025 µM; inhibition at 0.1 µM (AZT-resistant HIV-1; Human immunodeficiency virus 1, P4/R5, 0.1 μM final concentration, alone, 48 hours, FIG. 6, read-out: percent inhibition of HIV replication): 2%; EC50 (AZT-resistant HIV-1; Human immunodeficiency virus 1, compound alone, P4/R5 cells, read-out: EC50 against replication): ~1.2 µM; EC50 (wild type HIV-1): ~0.14 µM
O=P(O)(O)C(Nc1ccc(Br)cn1)P(=O)(O)O [Compound 48B] | 3.4 | 
O=P(O)(O)C(Nc1ccc2c(c1)CCC2)P(=O)(O)O [Compound 215A] | 4.5 | % Inhibition of AZT excision [2]: 75%
CCn1c2ccccc2c2cc(NC(P(=O)(O)O)P(=O)(O)O)ccc21 [Compound 228A] | 4.1 | % Inhibition of AZT excision [2]: 60%
O=P(O)(O)C(Nc1ccc(Cl)cc1Cl)P(=O)(O)O [Compound 244A] | 8 | 
CC(C)c1cccc(NC(P(=O)(O)O)P(=O)(O)O)c1 [Compound 248A] | 3.7 | % Inhibition of AZT excision [2]: 59%
O=P(O)(O)C(O)(Cc1cccc(C(F)(F)F)c1)P(=O)(O)O [Compound 250A] | 2.9 | % Inhibition of AZT excision [2]: 68%
O=P(O)(O)C(O)(Cc1cccc(I)c1)P(=O)(O)O [Compound 251A] | 3.4 | 
O=P(O)(O)C(O)(Cc1cccc(Cl)c1)P(=O)(O)O [Compound 253A] | 3.1 | % Inhibition of AZT excision [2]: 70%
O=P(O)(O)C(O)(Cc1cccc(Br)c1)P(=O)(O)O [Compound 255A] | 1.8 | % Inhibition of AZT excision [2]: 76%
O=[N+]([O-])c1cccc(CC(O)(P(=O)(O)O)P(=O)(O)O)c1 [Compound 256A] | 2.5 | % Inhibition of AZT excision [2]: 66%
O=P(O)(O)C(O)(Cc1cccc2ccccc12)P(=O)(O)O [Compound 257A] | 1.35 | 
O=P(O)(O)C(Nc1cccc(Cc2ccccc2)c1)P(=O)(O)O [Compound 262A] | 4.2 | % Inhibition of AZT excision [2]: 66%
O=P(O)(O)C(O)(Cc1cccc(I)c1)P(=O)(O)O [Compound 279A] | 1.1 | 
O=P(O)(O)C(Nc1cccc(CO)c1)P(=O)(O)O [Compound 280A] | 7.9 | 
COCc1cccc(NC(P(=O)(O)O)P(=O)(O)O)c1 [Compound 281A] | 9.5 | 
CN(C)Cc1cccc(CC(O)(P(=O)(O)O)P(=O)(O)O)c1 [Compound 289A] | 8.3 | 
O=P(O)(O)C(Cn1cnc2ccccc21)P(=O)(O)O [Compound 298A] | 13.5 | 
O=P(O)(O)C(Nc1cccc(Br)c1)P(=O)(O)O [Compound 302A] | 1 | 
O=[N+]([O-])c1cccc(NC(P(=O)(O)O)P(=O)(O)O)c1 [Compound 304A] | 2.7 | 
CC(C)CCNCC(P(=O)(O)O)P(=O)(O)O [Compound 311A] | 15.5 | 

SMILES | IC50 [1] [µM] | further results
O=P(O)(O)C(CNc1cccc(-c2ccccc2)c1)P(=O)(O)O [Compound 312A] | 11.3 | 
O=P(O)(O)C(O)(Cc1cccc(-c2ccc(F)cc2)c1)P(=O)(O)O [Compound 313A] | 1.9 | 
O=P(O)(O)C(O)(Cc1cccc(-c2ccc(Cl)cc2)c1)P(=O)(O)O [Compound 314A] | 0.9 | 
COc1ccc(-c2cccc(CC(O)(P(=O)(O)O)P(=O)(O)O)c2)cc1 [Compound 315A] | 2.4 | 
O=P(O)(O)C(Nc1cccc(-c2ccc(F)cc2F)c1)P(=O)(O)O [Compound 316A] | 3.9 | 
O=P(O)(O)C(Nc1cccc(-c2cc(F)cc(F)c2)c1)P(=O)(O)O [Compound 317A] | 2.1 | 
O=P(O)(O)C(O)(Cc1ccc(-c2ccc(F)cc2)cc1)P(=O)(O)O [Compound 325A] | 2.9 | 
O=P(O)(O)C(O)(Cc1ccc(-c2ccc(Cl)cc2)cc1)P(=O)(O)O [Compound 326A] | 3.9 | 
O=P(O)(O)C(Nc1cccc(-c2ccc(F)c(F)c2)c1)P(=O)(O)O [Compound 327A] | 2.1 | 
O=P(O)(O)C(O)(CC12CC3CC(CC(C3)C1)C2)P(=O)(O)O [Compound 329A] | 4.6 | 
O=P(O)(O)C(CNc1ccc(-c2ccccc2)cc1)P(=O)(O)O [Compound 331A] | 4.6 | 
O=P(O)(O)C(Nc1ccc(Cc2ccccc2)cc1)P(=O)(O)O [Compound 332A] | 3.5 | 
COc1ccc(-c2ccc(CC(O)(P(=O)(O)O)P(=O)(O)O)cc2)cc1 [Compound 333A] | 5.2 | 
O=P(O)(O)C(O)(Cc1cccc(-c2cc(F)ccc2F)c1)P(=O)(O)O [Compound 334A] | 1.5 | 
O=P(O)(O)C(O)(Cc1cccc(-c2ccc(F)c(F)c2)c1)P(=O)(O)O [Compound 336A] | 1 | 
O=P(O)(O)C(O)(Cc1cccc(Oc2ccccc2)c1)P(=O)(O)O [Compound 339A] | 3.3 | 
Cc1ccc(NC(P(=O)(O)O)P(=O)(O)O)cc1-c1ccccc1 [Compound 340A] | 5 | 
COc1cccc(CC(O)(P(=O)(O)O)P(=O)(O)O)c1 [Compound 341A] | 5.4 | 
O=P(O)(O)C(O)(Cc1ccc(Cl)c(Cl)c1)P(=O)(O)O [Compound 342A] | 0.4 | 
O=C(O)P(=O)(O)O [Foscarnet, phosphonoformic acid, reference compound] |  | concentration dependence of inhibition of ATP-mediated excision of AZT ([2]; increasing concentration, FIG. 3): did not inhibit ATP-mediated excision of AZT as well as 218A
